# Experimental data as given in patent US9453226B2, “Protection of cells from Alu-RNA-induced degeneration and inhibitors for protecting cells” (UNIVERSITY OF KENTUCKY RESEARCH FOUNDATION, priority 2011, dated 2016).
# Key:
# [1] = tested on: Dicer1 f/f mouse RPE cells; assay: Loss of viability of Dicer1 f/f mouse RPE cells treated with Ad-Cre; format: cell-based
# Protocol: Cells were plated at density of 15×10^3/cm^2 and after 16 h, at approximately 50% confluence, were infected with AdCre or AdNull (Vector Laboratories) with a multiplicity of infection of 1,000.
# [2] = tested on: miRNA; assay: miRNA abundance in Dicer1-depleted mouse RPE cells; format: cell-based
# From the text: Total RNA containing miRNAs was polyadenylated and reverse transcribed using universal primer using the All-In-One miRNA q-RT-PCR Detection Kit (GeneCopoeia) according to the manufacturer's specifications using a universal reverse primer in combination with the following forward primers: mouse miR-184 (5′-[…]-3′); mouse miR-221/222 (5′-[…]-3′); mouse miR-320a (5′-[…]-3′), and mouse miR-484 (5′-[…]-3′). miRNA levels were normalized to levels of U6 snRNA (5′-[…]-3′) using the 2^−ΔΔCt method. Detection was achieved by SYBR green qPCR with the following conditions: 95° C. for 10 min followed by 40 cycles of 95° C. for 10 s, 60° C. for 20 s and 72° C. for 20 s. Amplicon specificity was assessed by melt curve analysis and unique bands by agarose gel electrophoresis.
sequence,measurement,setting,value
DRQIKIWFQNRRMKWKKRDVLPGT [MyD88 inhibitory peptide],loss of cell viability in Dicer1 f/f mouse RPE cells treated with Ad-Cre,[1],rescues
same,miRNA abundance versus control peptide,[2],No significant difference
